The text below walks through data of article PMC7822892, “Avian antimicrobial peptides: in vitro and in ovo characterization and protection from early chick mortality caused by yolk sac infection” (Scientific Reports, 2021).

≈ marks a conversion by molar mass, not a printed value. Where a SMILES comes first, the peptide text is derived from it. Where no end group is shown, it is not given here. Bounds are passed on as bounds.

Series [1] concerns all tested bacteria (E. coli, S. Enteritidis, S. Typhimurium, C. jejuni, C. perfringens). The conditions noted are these: 10^4–10^5 CFU/ml, 2 h.
Series [2] has as its system Clostridium perfringens JP26. The conditions noted are these: Clostridium perfringens JP26, 10^4–10^5 CFU/ml in PBS pH 7.4, 2 h at 37 °C, duplicate, plating.
Series [3] concerns human peripheral blood mononuclear cells (PBMCs) and chicken erythrocytes. Conditions: cited from earlier work.
In series [4] the test system is HD11 cells. Put plainly: HD11 cytotoxicity, WST-1 assay. Conditions: 1.875 to 30 µg/ml, 24 h.
Series [5] deals with human PBMCs, monocyte chemotactic protein 1 (MCP-1). Also on record: method as in PMID 19524300. The conditions noted are these: in vitro stimulation of human PBMCs for 24 h; cited from earlier work.
Series [6] deals with E. coli EC317. Conditions: EC317, 2 h, 240 µg/ml.

Take RFGRFLRKIRRFRPK [CATH-2(1–15)]: the “MIC over tested Gram-negative bacteria” value in series [1] (E. coli, S. Enteritidis, S. Typhimurium, C. jejuni) lay in the range of 0.92 to 7.38 µM. Besides, the “Minimum inhibitory concentration (MIC) that kills 100% bacteria” value in series [2] is greater than 118.05 µM. For the same molecule, the “Toxicity (in words)” value in series [3] was “non-toxic or very mildly toxic”.
With `CC[C@H](C)[C@H](NC(=O)[C@H](CCCNC(=N)N)NC(=O)[C@H](CCCCN)NC(=O)[C@H](CS)NC(=O)[C@H](CS)NC(=O)[C@H](CC(C)C)NC(=O)[C@H](Cc1ccc(O)cc1)NC(=O)[C@H](Cc1ccccc1)NC(=O)[C@H](CCCNC(=N)N)NC(=O)[C@H](CO)NC(=O)[C@H](CS)NC(=O)[C@H](CCCCN)NC(=O)CNC(=O)[C@H](CO)NC(=O)[C@@H](NC(=O)[C@H](CC(C)C)NC(=O)[C@@H](NC(=O)[C@H](CC(C)C)NC(=O)[C@H](CO)NC(=O)[C@@H]1CCCN1C(=O)[C@H](CS)NC(=O)[C@H](CCCCN)NC(=O)[C@H](CC(C)C)NC(=O)[C@H](Cc1ccccc1)NC(=O)[C@H](C)NC(=O)[C@H](CS)NC(=O)[C@H](Cc1ccccc1)NC(=O)CNC(=O)[C@H](CO)NC(=O)[C@H](CCCCN)NC(=O)[C@H](CCCNC(=N)N)NC(=O)[C@H](Cc1ccccc1)NC(=O)[C@H](CS)NC(=O)[C@H](CC(=O)O)NC(=O)[C@H](CO)NC(=O)[C@H](CCCCN)NC(=O)[C@H](CCCNC(=N)N)NC(=O)CN)[C@@H](C)O)[C@@H](C)CC)C(=O)N[C@@H](Cc1c[nH]c2ccccc12)C(=O)O` [ABD1] (H-GRKSDCFRKSGFCAFLKCPSLTLISGKCSRFYLCCKRIW-OH), the “MIC over all tested bacteria” value in series [1] (five strains) fell in the range of 0.83 to 1.66 µM. The “Minimum inhibitory concentration (MIC) that kills 100% bacteria” value in series [2] amounted to 0.83 µM (≈ 3.74 µg/mL). Besides, the “Effect on growth and metabolic activity of HD11 cells (in words)” value (shortened to “Effect on growth and metabolic activity”) in series [4] is listed as “not shown any significant effect”.
For “CATH-2(1–21): analog of CATH-2 (literature values)”, the “MCP-1 production (in words)” value in series [5] is given as “significant induction”.
“CATH-2: mature, full-length chicken cathelicidin-2 (literature values)”: the “MCP-1 production (in words)” value in series [5] is listed as “significant induction”.
Consider “DTLACRQSHGSCSFVACRAPSVDIGTCRGGKLKCCKWAPSS (cysteines drawn unpaired) [ABD9]”, for which the “Minimum inhibitory concentration (MIC) that kills 100% bacteria” value in series [2] was greater than 55.97 µM. Further, the “Effect on growth and metabolic activity” value in series [4] is given as “not shown any significant effect”. The Growth inhibition in series [6] is reported as 40–90%.
On to `CC[C@H](C)[C@H](NC(=O)[C@H](CC(C)C)NC(=O)[C@H](Cc1c[nH]cn1)NC(=O)[C@H](CO)NC(=O)[C@@H]1CCCN1C(=O)[C@H](CS)NC(=O)CNC(=O)CNC(=O)[C@H](Cc1ccccc1)NC(=O)[C@H](Cc1c[nH]cn1)NC(=O)[C@H](CS)NC(=O)[C@H](CO)NC(=O)CNC(=O)CNC(=O)[C@H](CCCCN)NC(=O)[C@H](CS)NC(=O)[C@H](Cc1ccccc1)NC(=O)[C@H](CC(C)C)NC(=O)[C@H](CCSC)NC(=O)[C@H](CC(=O)O)NC(=O)[C@@H](N)CCCNC(=N)N)C(=O)N[C@@H](CCCCN)C(=O)N[C@H](C(=O)NCC(=O)N[C@@H](CO)C(=O)N[C@@H](CS)C(=O)N[C@@H](Cc1ccccc1)C(=O)NCC(=O)N[C@@H](Cc1ccccc1)C(=O)N[C@@H](CCCNC(=N)N)C(=O)N[C@@H](CO)C(=O)N[C@@H](CS)C(=O)N[C@@H](CS)C(=O)N[C@@H](CCCCN)C(=O)N[C@@H](Cc1c[nH]c2ccccc12)C(=O)N1CCC[C@H]1C(=O)N[C@@H](Cc1c[nH]c2ccccc12)C(=O)N[C@@H](CC(N)=O)C(=O)N[C@@H](C)C(=O)O)C(C)C` [ABD2] (H-RDMLFCKGGSCHFGGCPSHLIKVGSCFGFRSCCKWPWNA-OH), for which, in series [2], the “Minimum inhibitory concentration (MIC) that kills 100% bacteria” value is on record as greater than 55.50 µM. Moreover, the “Effect on growth and metabolic activity” value in series [4] is “not shown any significant effect”.
On the same counts, the results for “SPIHACRYQRGVCIPGPCRWPYYRVGSCGSGLKSCCVRNRWA (cysteines drawn unpaired) [ABD6]” are 50.59 µM and “not shown any significant effect”.
